Data as given in ChEMBL document CHEMBL1153010, “Effect of conjugates of all-trans-retinoic acid and shorter polyene chain analogues with amino acids on prostate cancer cell growth” (Eur J Med Chem, 2009).
Activity calls are given as the source filed them. The rule behind the calls is not given here.

Tests used:
LNCaP [1] = test: Cell cycle arrest in human LNCAP cells assessed as accumulation at G2/M phase after 48 hrs by flow cytometry; format: functional
LNCaP [2] = test: Antiproliferative activity against human LNCAP cells after 48 hrs by MTT assay in the presence of 1 uM RARalpha selective antagonist Ro415253; format: functional, cell-based
LNCaP [3] = test: Antiproliferative activity against human LNCAP cells assessed as maximal effect at 10 uM after 48 hrs by MTT assay; format: functional, cell-based
LNCaP [4] = test: Antiproliferative activity against human LNCAP cells after 48 hrs by MTT assay; format: functional, cell-based
LNCaP [5] = test: Cell cycle arrest in human LNCAP cells assessed as accumulation at G0/G1 phase after 48 hrs by flow cytometry; format: functional
LNCaP [6] = test: Cell cycle arrest in human LNCAP cells assessed as accumulation at S phase after 48 hrs by flow cytometry; format: functional
LNCaP [7] = test: Effect on morphology in human LNCAP cells assessed as elongation of cells by phase-contrast microscopy; format: functional, cell-based

Row | SMILES | Activity (LNCaP [1]) [%] | Activity (LNCaP [2]) | Activity (LNCaP [3]) | Activity (LNCaP [4]) | IC50 (LNCaP [4]) [nM] | Activity (LNCaP [5]) [%] | Activity (LNCaP [6]) [%] | Activity (LNCaP [7])
1 | CC1=C(/C=C/C(C)=C/C=C/C(C)=C/C(=O)N[C@@H](CC(C)C)C(=O)O)C(C)(C)CCC1 | 1.9 | Active | Active | Dose-dependent effect | 270 | 65.9 | 19.6 | 
2 | CC1=C(/C=C/C(C)=C/C=C/C(C)=C/C(=O)NCCCCCC(=O)O)C(C)(C)CCC1 |  |  |  | inactive |  |  |  | Active
3 | CC1=C(/C=C/C(C)=C/C=C/C(C)=C/C(=O)NCCC(=O)O)C(C)(C)CCC1 | 2.2 | Active | Active | Dose-dependent effect | 270 | 64 | 14.8 | Active
4 | CC1=C(/C=C/C(C)=C/C=C/C(C)=C/C(=O)O)C(C)(C)CCC1 [TRETINOIN] | 4.4 | inactive | Active | Dose-dependent effect | 500 | 66.7 | 17.6 | 
